Data on five molecules can be found in patent US20250114390A1, “MULTI-ACTIVE TABLET IN THE TREATMENT AND CONTROL OF SEVERE CHRONIC PAIN AND METHOD OF PREPARATION” (LABORATORIOS SILANES S.A. DE C.V., priority 2023, published 2025).

A word on the Solubility: it is how much of the substance goes into solution per volume. Usually pKa stands for the negative logarithm of the acid dissociation constant.

≈ marks a conversion by molar mass, not a printed value. Where two headings read alike, the source gives them in different places.

One data set deals with healthy subjects. Description: Adverse events in the comparative bioavailability clinical trial. Conditions: single dose. The source says:
The study was open, longitudinal, prospective, with a 3×6×3 design, with random assignment, single dose, three treatments, three periods and six sequences under fasting conditions, in a healthy Mexican female and male population with a washout time for drug elimination of one week (07 days) between each period.
Due to the COVID-19 health emergency, the 42 research subjects were divided into two hospitalization groups: Group 1 with 22 research subjects and Group 2 with 20 research subjects. After fasting for at least 10 hours, a blood sample was taken at time 0.00 hours, and a dose of celecoxib/pregabalin/vitamin B, 200 mg/150 mg tablets/vitamin B12 500 μg/vitamin B1 100 mg/vitamin B6 50 mg was administered, in a single dose of the test medicament or the reference medicament as monotherapy (celecoxib 200 mg capsule or pregabalin 150 mg capsule) according to prior randomization, orally with 250 ml of water at room temperature. After administration of the corresponding medicament, another 17 samples were taken at the following times: 0.50, 0.75, 1.00, 1.33, 1.66, 2.00, 2.50, 3.00, 3.50, 4.00, 6.00, 8.00, 10.00, 14.00, 24.00, 36.00- and 48.00-hours post-dose.

The conditions of data set [1]: cited from earlier work.
The conditions of data set [2]: cited from earlier work. This is another data set of the same source.

As to `CC(C)C[C@H](CN)CC(=O)O` [Pregabalin], in the data set with healthy subjects, the “Adverse events probably related to dosing, total” value is reported as 16 events; the Events of dizziness is given as 13 events; the Events of headache was determined as 1 events; the Events of paresthesia was 1 events. Further, the “Events of visual disturbances” value with healthy subjects is given as 1 events. In addition, the “Permeability (biopharmaceutical classification)” value in data set [1] (not told) is “high permeability”.

Turning to `Cc1ccc(-c2cc(C(F)(F)F)nn2-c2ccc(S(N)(=O)=O)cc2)cc1` [Celecoxib], the Cmax of celecoxib in data set [2] (Author: Center for Drug Evaluation, 1999) was 600.0 ± 900.00 ng/mL; in data set [2] (Author: Laboratorios Silanes), 602.685 ± 301.48 ng/mL; in data set [2] (Author: Lilitkarntrakul, P) it was 686.83 ± 211.35 ng/mL; in data set [2] (Author: Paulson, S), 806.0 ± 411.0 ng/mL; in data set [2] (Author: Sy-Yeuan J) it was 703.86 ± 329.91 ng/mL. The ABC0-t of celecoxib in data set [2] (Author: Laboratorios Silanes) is 5593.760 ± 2158.606 ng/mL*h; in data set [2] (Author: Lilitkarntrakul, P) it was 5157.12 ± 1499.46 ng/mL*h; in data set [2] (Author: Paulson, S), 5994.0 ± 2393.0 ng/mL*h; in data set [2] (Author: Sy-Yeuan J), 7267.48 ± 2077.68 ng/mL*h. The Solubility in data set [1] is 3300 µg/mL (≈ 8.65 mM). Besides, the “Solubility (biopharmaceutical classification)” value in data set [1] is “low solubility”.

On to Cyanocobalamin, for which, in data set [1] (1 g/L at 20° C.), the pH is recorded as 6.0. Further, in data set [1], the Solubility is 12000 µg/mL and the pKa is 1.82. Further, in data set [1] (in words), the Solubility in acetone result was “almost insoluble”, the Solubility in alcohol entry is given as “Soluble”, the Solubility in chloroform entry was “almost insoluble” and the “Solubility in diethyl ether” value is “almost insoluble”. Further, in data set [1] (in words), the Solubility in water entry is recorded as “slightly soluble”.

Take `Cc1ncc(C[n+]2csc(CCO)c2C)c(N)n1` [Thiamine]: the pKa in data set [1] is given as 15.5. Besides, in data set [1] (in words), the Solubility in chloroform result is “very slightly soluble”, the “Solubility in diethyl ether” value was “almost insoluble”, the Solubility in ethanol result was “slightly soluble” and the “Solubility in hot water” value was “Freely soluble”. For the same molecule, in data set [1] (in words), the Solubility in methanol entry is recorded as “slightly soluble” and the Solubility in water entry is “slightly soluble”.

Take `Cc1ncc(CO)c(CO)c1O` [Pyridoxine]: the “Stability (description)” value in data set [1] (air, light) was “stable in air and slowly decomposes with light”. Besides, the pKa in data set [1] is given as 9.4. For the same molecule, in data set [1] (in words), the Solubility in alcohol result is listed as “slightly soluble”, the “Solubility in diethyl ether” value is “almost insoluble” and the Solubility in water result is listed as “Easily soluble”.
